pIC50, pKd: −log10 of the molar value. The source made the active and inactive calls. The rule behind the calls is not given here.
Legend:
HeLa = experiment: Antiproliferative activity against human HeLa cells assessed as cell viability at 10 uM incubated for 48 hrs by MTT assay; format: functional; conditions: read-out: Activity
HepG2 [1] = experiment: Antitumor activity against human HepG2 cells xenografted in BALB/c nude mouse assessed as inhibition of tumor weight at 50 mg/kg, ip administered once every day for 14 days; format: functional, organism-based; conditions: time 14.0 day
HepG2 [2] = experiment: Induction of apoptosis in human HepG2 cells transfected with Nur77 siRNA assessed as late necrotic cells at 10 uM incubated for 12 hrs by AnnexinV-FITC/PI staining based flow cytometry (reference value: 0.3%); format: functional
HepG2 [3] = experiment: Induction of apoptosis in human HepG2 cells transfected with Nur77 siRNA assessed as mitochondrial membrane potential loss by measuring proportion of cells with depolarized MMP at 10 uM incubated for 12 hrs by JC-1 staining based flow cytometry (reference value: 5.81%); format: functional
HepG2 [4] = experiment: Induction of apoptosis in human HepG2 cells transfected with Nur77 siRNA assessed as viable cells at 10 uM incubated for 12 hrs by AnnexinV-FITC/PI staining based flow cytometry (reference value: 96.34%); format: functional; conditions: read-out: Activity
[5] = Toxicity in BALB/c nude mouse xenografted with human HepG2 cells assessed as effect on heart damage at 50 mg/kg ip administered once every day for 14 days by H and E staining based analysis; format: organism-based; conditions: in vivo, 336 h, time 14 day
[6] = Toxicity in BALB/c nude mouse xenografted with human HepG2 cells assessed as effect on spleen damage at 50 mg/kg ip administered once every day for 14 days by H and E staining based analysis; format: organism-based; conditions: in vivo, 336 h, time 14 day
HepG2 [7] = experiment: Induction of apoptosis in human HepG2 cells assessed as viable cells at 10 uM incubated for 12 hrs by AnnexinV-FITC/PI staining based flow cytometry (reference value: 96.32%); format: functional; conditions: read-out: Activity
[8] = target: T1, Peroxisome proliferator-activated receptor gamma (Homo sapiens) (UniProt P37231); experiment: Binding affinity to pBind-PPARgamma-LBD (unknown origin) transfected in HEK293T cells co-transfected with pG5-Luc at 5 uM incubated for 12 hrs by luciferase reporter gene assay; format: cell-based
T1 sequence (whole entry): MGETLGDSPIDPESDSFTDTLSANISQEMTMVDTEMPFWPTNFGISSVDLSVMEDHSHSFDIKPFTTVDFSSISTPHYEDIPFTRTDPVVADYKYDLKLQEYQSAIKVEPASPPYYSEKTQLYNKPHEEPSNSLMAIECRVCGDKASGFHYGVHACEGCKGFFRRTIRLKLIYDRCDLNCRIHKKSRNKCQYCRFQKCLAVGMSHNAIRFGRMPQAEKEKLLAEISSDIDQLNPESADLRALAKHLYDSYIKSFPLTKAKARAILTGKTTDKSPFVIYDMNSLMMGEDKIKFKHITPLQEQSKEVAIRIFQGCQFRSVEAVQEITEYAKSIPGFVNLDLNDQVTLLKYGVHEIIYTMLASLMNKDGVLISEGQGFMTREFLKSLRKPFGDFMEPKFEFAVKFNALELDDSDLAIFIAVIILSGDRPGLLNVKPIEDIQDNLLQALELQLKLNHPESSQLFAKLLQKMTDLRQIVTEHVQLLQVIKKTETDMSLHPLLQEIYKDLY

HepG2 [9] = experiment: Antiproliferative activity against human HepG2 cells assessed as cell viability at 10 uM incubated for 48 hrs by MTT assay; format: functional; conditions: read-out: Activity
[10] = Toxicity in BALB/c nude mouse xenografted with human HepG2 cells assessed as effect on kidney damage at 50 mg/kg ip administered once every day for 14 days by H and E staining based analysis; format: organism-based; conditions: in vivo, 336 h, time 14 day
[11] = target: T2, Nuclear receptor subfamily 4immunitygroup A member 1 (Homo sapiens, UniProt P22736); experiment: Binding affinity to Nur77 ligand binding domain (unknown origin) by surface plasmon resonance analysis
HepG2 [12] = experiment: Antitumor activity against human HepG2 cells xenografted in BALB/c nude mouse assessed as inhibition of tumor growth at 50 mg/kg, ip administered once every day for 14 days; format: functional; conditions: HepG2, 336 h, time 14 day, read-out: TGI
Huh-7 = experiment: Antiproliferative activity against human Huh-7 cells assessed as reduction in cell viability incubated for 48 hrs by MTT assay; format: functional, cell-based; conditions: Huh-7, 48 h
[13] = Selectivity index, ratio of IC50 for human L02 cells to IC50 for human A549 cells by MTT assay; format: toxicity; conditions: L02 cells versus A549 cells, read-out: Ratio IC50
[14] = Toxicity in BALB/c nude mouse xenografted with human HepG2 cells assessed as effect on liver damage at 50 mg/kg ip administered once every day for 14 days by H and E staining based analysis; format: organism-based; conditions: in vivo, 336 h, time 14 day
[15] = target: T2, Nuclear receptor subfamily 4immunitygroup A member 1; experiment: Modulation of Myc-Nur77-LBD (unknown origin) transfected in human HepG2 cells assessed as induction of Nur77 translocation from nucleus to mitochondria at 10 uM incubated for 3 hrs by confocal microscopy; conditions: filed as modulator
HepG2 [16] = experiment: Induction of apoptosis in human HepG2 cells assessed as early apoptotic cells at 10 uM incubated for 12 hrs by AnnexinV-FITC/PI staining based flow cytometry (reference value: 0.83%); format: functional
HepG2 [17] = experiment: Induction of apoptosis in human HepG2 cells assessed as induction of PARP cleavage incubated for 12 hrs by western blot analysis; format: functional, cell-based
HepG2 [18] = experiment: Antitumor activity against human HepG2 cells xenografted in BALB/c nude mouse assessed as decrease in Ki67 expression in tumor tissues at 50 mg/kg, ip administered once every day for 14 days by immunohistochemistry analysis; format: functional, organism-based; conditions: time 14.0 day
[19] = Selectivity index, ratio of IC50 for human L02 cells to IC50 for human HeLa cells by MTT assay; format: toxicity; conditions: L02 cells versus HeLa cells, read-out: Ratio IC50
[20] = Cytotoxicity against human L02 cells assessed as reduction in cell viability incubated for 48 hrs by MTT assay; format: toxicity, cell-based
HepG2 [21] = experiment: Antiproliferative activity against human HepG2 cells assessed as reduction in cell viability incubated for 48 hrs by MTT assay; format: functional, cell-based; conditions: HepG2, 48 h
[22] = Toxicity in BALB/c nude mouse xenografted with human HepG2 cells assessed as body weight loss at 50 mg/kg, ip administered once every day for 14 days; format: organism-based; conditions: in vivo, 336 h, time 14 day
[23] = Selectivity index, ratio of IC50 for human L02 cells to IC50 for human SMMC-7721 cells by MTT assay; format: toxicity; conditions: L02 cells versus SMMC-7721 cells, read-out: Ratio IC50
HepG2 [24] = experiment: Antitumor activity against human HepG2 cells xenografted in BALB/c nude mouse assessed as inhibition of tumor volume at 50 mg/kg, ip administered once every day for 14 days; format: functional, organism-based; conditions: time 14.0 day
HepG2 [25] = experiment: Induction of apoptosis in human HepG2 cells assessed as late apoptotic cells at 10 uM incubated for 12 hrs by AnnexinV-FITC/PI staining based flow cytometry (reference value: 1.91%); format: functional
[26] = Toxicity in Zebra fish AB embryo assessed as induction of morphological abnormalities at 0.5 uM incubated for 72 hrs; parameters: species or system Danio rerio; conditions: zebrafish
HepG2 [27] = experiment: Induction of apoptosis in human HepG2 cells transfected with Nur77 siRNA assessed as induction of PARP cleavage at 10 to 15 uM incubated for 12 hrs by western blot analysis; format: functional, cell-based; conditions: dose 10-15 µM

T2 sequence (P22736 whole entry, the tested form may be a part): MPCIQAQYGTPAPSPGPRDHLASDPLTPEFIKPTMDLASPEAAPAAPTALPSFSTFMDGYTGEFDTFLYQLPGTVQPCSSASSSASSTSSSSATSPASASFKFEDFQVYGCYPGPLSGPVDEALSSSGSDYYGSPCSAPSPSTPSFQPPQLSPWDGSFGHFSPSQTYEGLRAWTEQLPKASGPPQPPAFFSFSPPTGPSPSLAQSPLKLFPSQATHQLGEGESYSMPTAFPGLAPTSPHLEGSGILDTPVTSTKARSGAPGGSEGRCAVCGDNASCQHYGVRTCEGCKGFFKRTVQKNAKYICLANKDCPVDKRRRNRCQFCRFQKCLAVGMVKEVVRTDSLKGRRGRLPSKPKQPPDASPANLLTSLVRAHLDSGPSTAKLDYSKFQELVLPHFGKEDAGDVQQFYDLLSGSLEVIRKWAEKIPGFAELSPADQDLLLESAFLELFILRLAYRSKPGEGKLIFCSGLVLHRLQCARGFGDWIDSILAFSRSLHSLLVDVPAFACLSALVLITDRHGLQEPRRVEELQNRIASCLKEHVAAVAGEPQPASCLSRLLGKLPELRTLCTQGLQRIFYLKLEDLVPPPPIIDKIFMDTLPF

Activity [8]: inactive
pKd [11]: 6.45
Activity ([11]; filed as modulator): Dose-Dependent Effect
pIC50 (Huh-7): 5.45
Activity [15]: Active
pIC50 (HepG2 [21]): 5.04
SMILES: CN(C)CCCNC(=O)c1cc2cc(Nc3nccc(-c4cccnc4)n3)ccc2[nH]1
viability at 10 µM (HeLa): 19.4%
Activity (HepG2 [1]): Active
Activity (HepG2 [2]): 0.75%
Activity (HepG2 [3]): 8.91%
viability at 10 µM (HepG2 [4]): 95.1%
Activity [5]: Non-Toxic
Activity [6]: Non-Toxic
viability at 10 µM (HepG2 [7]): 72.7%
viability at 10 µM (HepG2 [9]): 43.7%
Activity [10]: Non-Toxic
inhibition in vivo at 50 mg/kg (HepG2 [12]): 71.8%
selectivity ratio [13]: 1.7
Activity [14]: Non-Toxic
Activity (HepG2 [16]): 16.5%
Activity (HepG2 [17]): Dose-Dependent Effect
Activity (HepG2 [18]): Active
selectivity ratio [19]: 3
IC50 at 48 h [20]: 11.2 µM
Activity [22]: Non-Toxic
selectivity ratio [23]: 1.9
Activity (HepG2 [24]): Active
Activity (HepG2 [25]): 8.01%
Activity [26]: Non-Toxic
Activity (HepG2 [27]): inactive
